Assay results reported in patent US20100267561A1, “HERBICIDAL PYRIDAZINONE DERIVATIVES” (priority 2007, published 2010).

Tests used:
Assay type in all cases: in vivo
[1] = tested on: ducksalad (Heteranthera limosa); test: Test B flooded paddy test plant response
Outline: (§1)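 Rice, umbrella sedge, ducksalad and barnyardgrass at 2-leaf stage; pots flooded to 3 cm, compounds applied into paddy water, depth held throughout. Greenhouse 13 to 15 days, then visual rating vs untreated controls on 0–100 scale (0 no effect, 100 complete control); dash means no test result.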

[2] = tested on: umbrella sedge (Cyperus difformis); test: Test B flooded paddy test plant response
Outline: as §1

[3] = tested on: Italian ryegrass (Lolium multiflorum); test: Test C pre-/postemergence plant response
Outline: (§2)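 Visual rating vs untreated controls, 0 (no effect) to 100 (complete control), after 15–25 days in a controlled growth environment. Pre- and postemergence treatments; post plants at 1- to 4-leaf stage, 2–18 cm. Formulation: non-phytotoxic solvent mix plus surfactant.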

[4] = tested on: annual bluegrass (Poa annua); test: Test C pre-/postemergence plant response
Outline: as §2

[5] = tested on: blackgrass (Alopecurus myosuroides); test: Test C pre-/postemergence plant response
Outline: as §2

[6] = tested on: canarygrass (Phalaris minor); test: Test C pre-/postemergence plant response; conditions: Preemergence
Outline: as §2

[7] = tested on: downy bromegrass (Bromus tectorum); test: Test C pre-/postemergence plant response
Outline: as §2

[8] = tested on: green foxtail (Setaria viridis); test: Test C pre-/postemergence plant response
Outline: as §2

[9] = tested on: pigweed (Amaranthus retroflexus); test: Test C pre-/postemergence plant response
Outline: as §2

[10] = tested on: spring barley (Hordeum vulgare); test: Test C pre-/postemergence plant response
Outline: as §2

[11] = tested on: spring wheat (Triticum aestivum); test: Test C pre-/postemergence plant response
Outline: as §2

[12] = tested on: wild mustard (Sinapis arvensis); test: Test C pre-/postemergence plant response
Outline: as §2

wild oat (Avena fatua) = test: Test C pre-/postemergence plant response
Outline: as §2

[13] = tested on: windgrass (Apera spica-venti); test: Test C pre-/postemergence plant response
Outline: as §2

[14] = tested on: winter barley (Hordeum vulgare); test: Test C pre-/postemergence plant response
Outline: as §2

[15] = tested on: winter wheat (Triticum aestivum); test: Test C pre-/postemergence plant response
Outline: as §2

[16] = Flood (flooded paddy test), 62 g ai/ha, scale 0 to 100, 0 no effect, 100 complete control
[17] = Flood (flooded paddy test), 125 g ai/ha, scale 0 to 100, 0 no effect, 100 complete control
[18] = Flood (flooded paddy test), 250 g ai/ha, scale 0 to 100, 0 no effect, 100 complete control
[19] = Flood, 31 g ai/ha, scale 0 to 100
[20] = Preemergence, 8 g ai/ha, scale 0 to 100 (0 no effect, 100 complete control)
[21] = Preemergence, 16 g ai/ha, scale 0 to 100 (0 no effect, 100 complete control)
[22] = Preemergence, 62 g ai/ha, scale 0 to 100, 0 no effect, 100 complete control
[23] = Preemergence, 31 g ai/ha, scale 0 to 100 (0 no effect, 100 complete control)
[24] = 8 g ai/ha, scale 0 to 100 (0 no effect, 100 complete control)
[25] = 16 g ai/ha, scale 0 to 100 (0 no effect, 100 complete control)
[26] = 31 g ai/ha, scale 0 to 100 (0 no effect, 100 complete control)
[27] = 62 g ai/ha, scale 0 to 100, 0 no effect, 100 complete control
[28] = Postemergence, 8 g ai/ha, scale 0 to 100, 0 no effect, 100 complete control
[29] = Postemergence, 16 g ai/ha, scale 0 to 100, 0 no effect, 100 complete control
[30] = Postemergence, 31 g ai/ha, scale 0 to 100, 0 no effect, 100 complete control
[31] = Postemergence, 62 g ai/ha, scale 0 to 100, 0 no effect, 100 complete control

Cc1cc(-c2ccc(Cl)cc2)nn1-c1c(OS(=O)(=O)c2ccccc2[N+](=O)[O-])cnn(C)c1=O [Compound 51]
Plant response rating, Ducksalad [1, 16]: 0
Plant response rating, Ducksalad [1, 17]: 0
Plant response rating, Ducksalad [1, 18]: 0
Plant response rating, Ducksalad [1, 19]: 0
Plant response rating, Sedge, Umbrella [2, 16]: 40
Plant response rating, Sedge, Umbrella [2, 17]: 60
Plant response rating, Sedge, Umbrella [2, 18]: 70
Plant response rating, Sedge, Umbrella [2, 19]: 0
Plant response rating, Ryegrass, Italian [3, 20]: 0
Plant response rating, Ryegrass, Italian [3, 21]: 90
Plant response rating, Ryegrass, Italian [3, 22]: 90
Plant response rating, Bluegrass [4, 20]: 0
Plant response rating, Bluegrass [4, 21]: 0
Plant response rating, Bluegrass [4, 23]: 0
Plant response rating, Bluegrass [4, 22]: 10
Plant response rating, Blackgrass [5, 20]: 0
Plant response rating, Blackgrass [5, 21]: 35
Plant response rating, Blackgrass [5, 23]: 100
Plant response rating, Blackgrass [5, 22]: 100
Plant response rating, Canarygrass [6, 24]: 0
Plant response rating, Canarygrass [6, 25]: 0
Plant response rating, Canarygrass [6, 26]: 80
Plant response rating, Canarygrass [6, 27]: 90
Plant response rating, Bromegrass, Downy [7, 20]: 0
Plant response rating, Bromegrass, Downy [7, 21]: 0
Plant response rating, Bromegrass, Downy [7, 23]: 0
Plant response rating, Bromegrass, Downy [7, 22]: 50
Plant response rating, Foxtail, Green [8, 20]: 10
Plant response rating, Foxtail, Green [8, 21]: 80
Plant response rating, Foxtail, Green [8, 23]: 100
Plant response rating, Foxtail, Green [8, 22]: 100
Plant response rating, Pigweed [9, 20]: 0
Plant response rating, Pigweed [9, 21]: 0
Plant response rating, Pigweed [9, 23]: 0
Plant response rating, Pigweed [9, 22]: 0
Plant response rating, Barley, Spring [10, 20]: 0
Plant response rating, Barley, Spring [10, 21]: 15
Plant response rating, Barley, Spring [10, 23]: 20
Plant response rating, Barley, Spring [10, 22]: 70
Plant response rating, Wheat, Spring [11, 20]: 0
Plant response rating, Wheat, Spring [11, 21]: 0
Plant response rating, Wheat, Spring [11, 23]: 60
Plant response rating, Wheat, Spring [11, 22]: 75
Plant response rating, Mustard, Wild [12, 21]: 0
Plant response rating, Mustard, Wild [12, 23]: 0
Plant response rating, Mustard, Wild [12, 22]: 0
Plant response rating, Oat, Wild (wild oat (Avena fatua); [20]): 0
Plant response rating, Oat, Wild (wild oat (Avena fatua); [21]): 0
Plant response rating, Oat, Wild (wild oat (Avena fatua); [23]): 35
Plant response rating, Oat, Wild (wild oat (Avena fatua); [22]): 50
Plant response rating, Windgrass [13, 20]: 0
Plant response rating, Windgrass [13, 21]: 10
Plant response rating, Windgrass [13, 23]: 20
Plant response rating, Windgrass [13, 22]: 80
Plant response rating, Barley, Winter [14, 20]: 0
Plant response rating, Barley, Winter [14, 21]: 0
Plant response rating, Barley, Winter [14, 23]: 0
Plant response rating, Barley, Winter [14, 22]: 40
Plant response rating, Wheat, Winter [15, 20]: 0
Plant response rating, Wheat, Winter [15, 21]: 0
Plant response rating, Wheat, Winter [15, 23]: 0
Plant response rating, Wheat, Winter [15, 22]: 40

Cc1cc(-c2ccc(Cl)cc2)nn1-c1c(OC(=O)OCC(C)C)cnn(C)c1=O [Compound 57]
Plant response rating, Ducksalad [1, 16]: 0
Plant response rating, Ducksalad [1, 17]: 0
Plant response rating, Ducksalad [1, 18]: 70
Plant response rating, Sedge, Umbrella [2, 16]: 65
Plant response rating, Sedge, Umbrella [2, 17]: 75
Plant response rating, Sedge, Umbrella [2, 18]: 80
Plant response rating, Sedge, Umbrella [2, 19]: 45
Plant response rating, Ryegrass, Italian [3, 28]: 75
Plant response rating, Ryegrass, Italian [3, 29]: 98
Plant response rating, Ryegrass, Italian [3, 30]: 100
Plant response rating, Ryegrass, Italian [3, 31]: 100
Plant response rating, Ryegrass, Italian [3, 20]: 65
Plant response rating, Ryegrass, Italian [3, 21]: 85
Plant response rating, Ryegrass, Italian [3, 23]: 100
Plant response rating, Ryegrass, Italian [3, 22]: 100
Plant response rating, Bluegrass [4, 28]: 0
Plant response rating, Bluegrass [4, 29]: 10
Plant response rating, Bluegrass [4, 30]: 30
Plant response rating, Bluegrass [4, 31]: 35
Plant response rating, Bluegrass [4, 20]: 0
Plant response rating, Bluegrass [4, 21]: 30
Plant response rating, Bluegrass [4, 23]: 50
Plant response rating, Bluegrass [4, 22]: 65
Plant response rating, Blackgrass [5, 28]: 35
Plant response rating, Blackgrass [5, 29]: 75
Plant response rating, Blackgrass [5, 30]: 98
Plant response rating, Blackgrass [5, 20]: 75
Plant response rating, Blackgrass [5, 21]: 85
Plant response rating, Blackgrass [5, 23]: 95
Plant response rating, Blackgrass [5, 22]: 95
Plant response rating, Canarygrass [6, 24]: 0
Plant response rating, Canarygrass [6, 25]: 75
Plant response rating, Canarygrass [6, 26]: 80
Plant response rating, Canarygrass [6, 27]: 90
Plant response rating, Bromegrass, Downy [7, 28]: 0
Plant response rating, Bromegrass, Downy [7, 29]: 30
Plant response rating, Bromegrass, Downy [7, 30]: 30
Plant response rating, Bromegrass, Downy [7, 31]: 70
Plant response rating, Bromegrass, Downy [7, 20]: 0
Plant response rating, Bromegrass, Downy [7, 21]: 20
Plant response rating, Bromegrass, Downy [7, 23]: 40
Plant response rating, Bromegrass, Downy [7, 22]: 80
Plant response rating, Foxtail, Green [8, 28]: 90
Plant response rating, Foxtail, Green [8, 29]: 100
Plant response rating, Foxtail, Green [8, 30]: 100
Plant response rating, Foxtail, Green [8, 31]: 100
Plant response rating, Foxtail, Green [8, 20]: 40
Plant response rating, Foxtail, Green [8, 21]: 100
Plant response rating, Foxtail, Green [8, 23]: 100
Plant response rating, Foxtail, Green [8, 22]: 100
Plant response rating, Pigweed [9, 28]: 0
Plant response rating, Pigweed [9, 29]: 0
Plant response rating, Pigweed [9, 30]: 0
Plant response rating, Pigweed [9, 31]: 0
Plant response rating, Pigweed [9, 20]: 0
Plant response rating, Pigweed [9, 21]: 0
Plant response rating, Pigweed [9, 23]: 0
Plant response rating, Pigweed [9, 22]: 0
Plant response rating, Barley, Spring [10, 28]: 0
Plant response rating, Barley, Spring [10, 29]: 20
Plant response rating, Barley, Spring [10, 30]: 30
Plant response rating, Barley, Spring [10, 31]: 40
Plant response rating, Barley, Spring [10, 20]: 0
Plant response rating, Barley, Spring [10, 21]: 0
Plant response rating, Barley, Spring [10, 23]: 20
Plant response rating, Barley, Spring [10, 22]: 40
Plant response rating, Wheat, Spring [11, 28]: 0
Plant response rating, Wheat, Spring [11, 29]: 25
Plant response rating, Wheat, Spring [11, 30]: 75
Plant response rating, Wheat, Spring [11, 31]: 75
Plant response rating, Wheat, Spring [11, 20]: 20
Plant response rating, Wheat, Spring [11, 21]: 20
Plant response rating, Wheat, Spring [11, 23]: 65
Plant response rating, Wheat, Spring [11, 22]: 90
Plant response rating, Mustard, Wild [12, 28]: 0
Plant response rating, Mustard, Wild [12, 29]: 0
Plant response rating, Mustard, Wild [12, 30]: 0
Plant response rating, Mustard, Wild [12, 31]: 0
Plant response rating, Mustard, Wild [12, 20]: 0
Plant response rating, Mustard, Wild [12, 21]: 0
Plant response rating, Mustard, Wild [12, 23]: 0
Plant response rating, Mustard, Wild [12, 22]: 0
Plant response rating, Oat, Wild (wild oat (Avena fatua); [28]): 10
Plant response rating, Oat, Wild (wild oat (Avena fatua); [29]): 90
Plant response rating, Oat, Wild (wild oat (Avena fatua); [30]): 90
Plant response rating, Oat, Wild (wild oat (Avena fatua); [31]): 100
Plant response rating, Oat, Wild (wild oat (Avena fatua); [20]): 0
Plant response rating, Oat, Wild (wild oat (Avena fatua); [21]): 15
Plant response rating, Oat, Wild (wild oat (Avena fatua); [23]): 60
Plant response rating, Oat, Wild (wild oat (Avena fatua); [22]): 80
Plant response rating, Windgrass [13, 28]: 0
Plant response rating, Windgrass [13, 29]: 0
Plant response rating, Windgrass [13, 30]: 0
Plant response rating, Windgrass [13, 31]: 65
Plant response rating, Windgrass [13, 20]: 0
Plant response rating, Windgrass [13, 21]: 0
Plant response rating, Windgrass [13, 23]: 50
Plant response rating, Windgrass [13, 22]: 75
Plant response rating, Barley, Winter [14, 28]: 0
Plant response rating, Barley, Winter [14, 29]: 15
Plant response rating, Barley, Winter [14, 30]: 15
Plant response rating, Barley, Winter [14, 31]: 90
Plant response rating, Barley, Winter [14, 20]: 0
Plant response rating, Barley, Winter [14, 21]: 0
Plant response rating, Barley, Winter [14, 23]: 20
Plant response rating, Barley, Winter [14, 22]: 60
Plant response rating, Wheat, Winter [15, 28]: 0
Plant response rating, Wheat, Winter [15, 29]: 30
Plant response rating, Wheat, Winter [15, 30]: 30
Plant response rating, Wheat, Winter [15, 31]: 50
Plant response rating, Wheat, Winter [15, 20]: 15
Plant response rating, Wheat, Winter [15, 21]: 15
Plant response rating, Wheat, Winter [15, 23]: 20
Plant response rating, Wheat, Winter [15, 22]: 65
